The values below come from patent US20100069436A1, “IMIDAZOLE COMPOUNDS HAVING AN ANTIINFLAMMATORY EFFECT” (Merckle, priority 2006, published 2010).

This test deals with p38α MAP kinase (Homo sapiens, UniProt Q16539). Description: Assay to determine the inhibition of p38α MAP kinase (phosphorylation of ATF-2, IC50-values). The format is biochemical. As to conditions: ATF-2 coated microtiter plates, 10 ng activated p38α, 100 μM ATP, 1 h at 37° C.; read-out: IC50, inhibition of the phosphorylation of ATF-2 by p38a MAP kinase. As to the method: Assay to determine the inhibition of p38α MAP kinase (IC50-values)
Sequence of p38α MAP kinase (Q16539 whole entry): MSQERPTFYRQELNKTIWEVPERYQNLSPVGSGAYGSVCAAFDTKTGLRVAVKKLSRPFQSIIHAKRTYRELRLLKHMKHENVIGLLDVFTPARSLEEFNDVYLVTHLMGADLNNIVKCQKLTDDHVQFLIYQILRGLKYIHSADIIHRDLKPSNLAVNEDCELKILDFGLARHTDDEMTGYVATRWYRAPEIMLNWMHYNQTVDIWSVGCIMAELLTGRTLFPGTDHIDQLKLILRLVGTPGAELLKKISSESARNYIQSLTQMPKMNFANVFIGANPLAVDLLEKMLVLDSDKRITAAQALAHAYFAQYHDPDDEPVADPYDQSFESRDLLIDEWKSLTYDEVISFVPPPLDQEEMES
Microtiter plates were coated with the p38 MAP kinase substrate ATF-2 by incubating 50 μl of 20 μg/ml ATF-2 for one hour at 37° C. After the plates were washed three times with water, 50 μl of kinase mixture (=50 mM Tris-HCl, 10 mM MgCl2, 10 mM β-glycerol phosphate, 10 μg/ml BSA, 1 mM DTT, 100 μM ATP, 100 μM […], 10 ng activated p38α) without an with increasing inhibitor concentrations were added into the wells and incubated for one hour at 37° C. The plates were washed three times with water and incubated with an anti-phospho-ATF-2 antibody for one hour at 37°. Thereafter, the plates were again washed three times with water and incubated with a goat, alkaline phosphatase-labeled anti-rabbit IgG, for one hour at 37° C. The plates were washed and incubated with 100 μl of a solution containing the phosphatase substrate 4-nitrophenolphosphate (3 mM 4-NPP, 50 mM NaHCO3, 50 mM MgCl2) for 1.5 hours at 37° C. Formation of 4-nitrophenolate was measured at 405 nm using a microtiter plate reader. Based on the inhibitor-concentration/response curves, IC50-values were determined.
As for `COCCn1c(SC)nc(-c2ccc(F)cc2)c1-c1ccnc(NCC2CCCCC2O)c1` (centres unmarked) [35 (1)], the IC50 is < 1000 nM.

Take `COCCn1c(S(C)(=O)=O)nc(-c2ccc(F)cc2)c1-c1ccnc(NC2CCCCC2O)c1` (centres unmarked) [35 (4)]: the IC50 fell in the range of 1000 to 10000 nM.

As for `CCN1CCCC1CNc1cc(-c2c(-c3ccc(F)cc3)nc(SC)n2C)ccn1` (centres unmarked) [Example 1, (1-Ethyl-pyrrolidin-2-ylmethyl)-{4-[5-(4-fluoro-phenyl)-3-methyl-2-methylsulfanyl-3H-imidazol-4-yl]-pyridin-2-yl}-amine], the IC50 is > 10000 nM.

Consider `CCN1CCCC1CNc1cc(-c2c(-c3ccc(F)cc3)nc(SC)n2CCOC)ccn1` (centres unmarked) [Example 2], for which the IC50 was < 1000 nM.

In the case of `CSc1nc(-c2ccc(F)cc2)c(-c2ccnc(NC3CC(C)(C)NC(C)(C)C3)c2)n1C` [Example 3], the IC50 lay in the range of 1000 to 10000 nM.

As to `COCCn1c(SC)nc(-c2ccc(F)cc2)c1-c1ccnc(NC2CC(C)(C)NC(C)(C)C2)c1` [Example 4, {4-[5-(4-Fluoro-phenyl)-3-(2-methoxy-ethyl)-2-methylsulfanyl-3H-imidazol-4-yl]-pyridin-2-yl}-(2,2,6,6-tetramethyl-piperidin-4-yl)-amine], the IC50 was < 1000 nM.

Take `CSc1nc(-c2ccc(F)cc2)c(-c2ccnc(NC3CCN(Cc4ccccc4)CC3)c2)n1C` [Example 5, (1-Benzyl-piperidin-4-yl)-{4-[5-(4-fluoro-phenyl)-3-methyl-2-methylsulfanyl-3H-imidazol-4-yl]-pyridin-2-yl}-amine]: the IC50 lay in the range of 1000 to 10000 nM.

With `COCCn1c(SC)nc(-c2ccc(F)cc2)c1-c1ccnc(NC2CCN(Cc3ccccc3)CC2)c1` [Example 6, (1-Benzyl-piperidin-4-yl)-{4-[5-(4-fluoro-phenyl)-3-(2-methoxy-ethyl)-2-methylsulfanyl-3H-imidazol-4-yl]-pyridin-2-yl}-amine], the 50% inhibitory concentration (IC50) lay in the range of 1000 to 10000 nM.

In the case of `CCN1CCCC1CNc1cc(-c2c(-c3ccc(F)cc3)nc([S+](C)[O-])n2C)ccn1` (centres unmarked) [Example 7, (1-Ethyl-pyrrolidin-2-ylmethyl)-{4-[5-(4-fluoro-phenyl)-2-methanesulfinyl-3-methyl-3H-imidazol-4-yl]-pyridin-2-yl}-amine], the IC50 was > 10000 nM.

On to `Cn1c([S+](C)[O-])nc(-c2ccc(F)cc2)c1-c1ccnc(NC2CC(C)(C)NC(C)(C)C2)c1` (centres unmarked) [Example 9, {4-[5-(4-Fluoro-phenyl)-2-methanesulfinyl-3-methyl-3H-imidazol-4-yl]-pyridin-2-yl}-(2,2,6,6-tetramethyl-piperidin-4-yl)-amine], for which the IC50 is > 10000 nM.

As to `COCCn1c([S+](C)[O-])nc(-c2ccc(F)cc2)c1-c1ccnc(NC2CC(C)(C)NC(C)(C)C2)c1` (centres unmarked) [Example 10], the IC50 was > 10000 nM.

Turning to `Cn1c([S+](C)[O-])nc(-c2ccc(F)cc2)c1-c1ccnc(NC2CCN(Cc3ccccc3)CC2)c1` (centres unmarked) [Example 11, (1-Benzyl-piperidin-4-yl)-{4-[5-(4-fluoro-phenyl)-2-methanesulfinyl-3-methyl-3H-imidazol-4-yl]-pyridin-2-yl}-amine], the IC50 was > 10000 nM.

Regarding `COCCn1c([S+](C)[O-])nc(-c2ccc(F)cc2)c1-c1ccnc(NC2CCN(Cc3ccccc3)CC2)c1` (centres unmarked) [Example 12, (1-Benzyl-piperidin-4-yl)-{4-[5-(4-fluoro-phenyl)-2-methanesulfinyl-3-(2-methoxy-ethyl)-3H-imidazol-4-yl]-pyridin-2-yl}-amine], the IC50 was in the range of 1000 to 10000 nM.

As for `CSc1nc(-c2ccc(F)cc2)c(-c2ccnc(NCC(C)O)c2)n1C` (centres unmarked) [Example 13, 1-{4-[5-(4-Fluoro-phenyl)-3-methyl-2-methylsulfanyl-3H-imidazol-4-yl]-pyridin-2-ylamino}-propan-2-ol], the IC50 was < 1000 nM.

For the molecule `COCCn1c(SC)nc(-c2ccc(F)cc2)c1-c1ccnc(NCC(C)O)c1` (centres unmarked) [Example 14, 1-{4-[5-(4-Fluoro-phenyl)-3-(2-methoxy-ethyl)-2-methylsulfanyl-3H-imidazol-4-yl]-pyridin-2-ylamino}-propan-2-ol], the IC50 is < 1000 nM.

For the molecule `CSc1nc(-c2ccc(F)cc2)c(-c2ccnc(NC3CCC(O)CC3)c2)n1C` (centres unmarked) [Example 15, 4-{4-[5-(4-Fluoro-phenyl)-3-methyl-2-methylsulfanyl-3H-imidazol-4-yl]-pyridin-2-ylamino}-cyclohexanol], the IC50 is < 1000 nM.

For the molecule `COCCn1c(SC)nc(-c2ccc(F)cc2)c1-c1ccnc(NC2CCC(O)CC2)c1` (centres unmarked) [Example 16, 4-{4-[5-(4-Fluoro-phenyl)-3-(2-methoxy-ethyl)-2-methylsulfanyl-3H-imidazol-4-yl]-pyridin-2-ylamino}-cyclohexanol], the IC50 was < 1000 nM.

Take `CSc1nc(-c2ccc(F)cc2)c(-c2ccnc(NC3CCCCC3O)c2)n1C` (centres unmarked) [Example 17, 2-{4-[5-(4-Fluoro-phenyl)-3-methyl-2-methylsulfanyl-3H-imidazol-4-yl]-pyridin-2-ylamino}-cyclohexanol]: the IC50 lay in the range of 1000 to 10000 nM.

Turning to `CSc1nc(-c2ccc(F)cc2)c(-c2ccnc(NC3CCCCC3O)c2)n1C` (centres unmarked) [Example 18, 2-{4-[5-(4-Fluoro-phenyl)-3-methyl-2-methylsulfanyl-3H-imidazol-4-yl]-pyridin-2-ylamino}-cyclohexanol], the IC50 was < 1000 nM.

Take `COCCn1c(SC)nc(-c2ccc(F)cc2)c1-c1ccnc(NC2CCCCC2O)c1` (centres unmarked) [Example 19, 2-{4-[5-(4-Fluoro-phenyl)-3-(2-methoxy-ethyl)-2-methylsulfanyl-3H-imidazol-4-yl]-pyridin-2-ylamino}-cyclohexanol]: the IC50 lay in the range of 1000 to 10000 nM.

Take `CC(O)CNc1cc(-c2c(-c3ccc(F)cc3)nc([S+](C)[O-])n2C)ccn1` (centres unmarked) [Example 20, 1-{4-[5-(4-Fluoro-phenyl)-2-methanesulfinyl-3-methyl-3H-imidazol-4-yl]-pyridin-2-ylamino}-propan-2-ol]: the 50% inhibitory concentration (IC50) is > 10000 nM.

Take `COCCn1c([S+](C)[O-])nc(-c2ccc(F)cc2)c1-c1ccnc(NCC(C)O)c1` (centres unmarked) [Example 21, 1-{4-[5-(4-Fluoro-phenyl)-2-methanesulfinyl-3-(2-methoxy-ethyl)-3H-imidazol-4-yl]-pyridin-2-ylamino}-propan-2-ol]: the IC50 lay in the range of 1000 to 10000 nM.

For `Cn1c([S+](C)[O-])nc(-c2ccc(F)cc2)c1-c1ccnc(NC2CCC(O)CC2)c1` (centres unmarked) [Example 22, 4-{4-[5-(4-Fluoro-phenyl)-2-methanesulfinyl-3-methyl-3H-imidazol-4-yl]-Pyridin-2-ylamino}-cyclohexanol], the IC50 was < 1000 nM.

In the case of `COCCn1c([S+](C)[O-])nc(-c2ccc(F)cc2)c1-c1ccnc(NC2CCC(O)CC2)c1` (centres unmarked) [Example 23, 4-{4-[5-(4-Fluoro-phenyl)-2-methanesulfinyl-3-(2-methoxy-ethyl)-3H-imidazol-4-yl]-pyridin-2-ylamino}-cyclohexanol], the half-inhibitory concentration (IC50) was < 1000 nM.

In the case of `Cn1c([S+](C)[O-])nc(-c2ccc(F)cc2)c1-c1ccnc(NC2CCCCC2O)c1` (centres unmarked) [Example 24, 2-{4-[5-(4-Fluoro-phenyl)-2-methanesulfinyl-3-methyl-3H-imidazol-4-yl]pyridin-2-ylamino}-cyclohexanol], the IC50 lay within 1000 to 10000 nM.

As for `COCCn1c([S+](C)[O-])nc(-c2ccc(F)cc2)c1-c1ccnc(NC2CCCCC2O)c1` (centres unmarked) [Example 25, 2-{4-[5-(4-Fluoro-phenyl)-2-methanesulfinyl-3-(2-methoxy-ethyl)-3H-imidazol-4-yl]-pyridin-2-ylamino}-cyclohexanol], the IC50 fell in the range of 1000 to 10000 nM.

As to `COCCn1c(SC)nc(-c2ccc(F)cc2)c1-c1ccnc(NCC(C)=O)c1` [Example 26, 1-{4-[5-(4-Fluoro-phenyl)-3-(2-methoxy-ethyl)-2-methylsulfanyl-3H-imidazol-4-yl]-pyridin-2-ylamino}-propan-2-one], the IC50 fell in the range of 1000 to 10000 nM.

Regarding `CSc1nc(-c2ccc(F)cc2)c(-c2ccnc(NC3CCC(=O)CC3)c2)n1C` [Example 27, 4-{4-[5-(4-Fluoro-phenyl)-3-methyl-2-methylsulfanyl-3H-imidazol-4-yl]-pyridin-2-ylamino}-cyclohexanone], the IC50 is 1000 to 10000 nM.

In the case of `CSc1nc(-c2ccc(F)cc2)c(-c2ccnc(NC3CCCCC3=O)c2)n1C` (centres unmarked) [Example 28, 2-{4-[5-(4-Fluoro-phenyl)-3-methyl-2-methylsulfanyl-3H-imidazol-4-yl]-pyridin-2-ylamino}-cyclohexanone], the IC50 is < 1000 nM.

With `COCCn1c(SC)nc(-c2ccc(F)cc2)c1-c1ccnc(NC(=O)C2CCOCC2)c1` [Example 32, Tetrahydro-pyran-4-carboxylic acid {4-[5-(4-fluoro-phenyl)-3-(2-methoxy-ethyl)-2-methylsulfanyl-3H-imidazol-4-yl]-pyridin-2-yl}-amide], the IC50 was < 1000 nM.

For `COCCn1c([S+](C)[O-])nc(-c2ccc(F)cc2)c1-c1ccnc(NC(=O)C2CCOCC2)c1` (centres unmarked) [Example 33, Tetrahydro-pyran-4-carboxylic acid {4-[5-(4-fluoro-phenyl)-2-methanesulfinyl-3-(2-methoxy-ethyl)-3H-imidazol-4-yl]-pyridin-2-yl}-amide], the IC50 was < 1000 nM.

Regarding `COCCn1c(SC)nc(-c2ccc(F)cc2)c1-c1ccnc(NC2CCCCC2O)c1` (centres unmarked) [Example 35 (2)], the IC50 is < 1000 nM.
